From US9499553B2 (CHUGAI SEIYAKU KABUSHIKI KAISHA, priority 2013, dated 2016) come the findings set out here.

Test [1] relates to rat small-intestinal brush border membrane vesicles. The test is described as follows: Inhibitory effect on 33PO4 uptake into rat small-intestinal brush border membrane vesicles (rapid filtration method). As to conditions: 1 μM test compound; 33PO4 uptake into rat small-intestinal BBMVs, reacted for 60 seconds. It counts as biochemical. As for the experimental part:
Test Example 1: Inhibitory Effect on ^33PO4 Uptake into Rat Small-Intestinal Brush Border Membrane Vesicles Brush border membrane vesicles (BBMVs) were prepared using the upper region of the small intestine of each Wistar female rat (4-5 weeks old). The preparation of BBMVs was performed according to the method of Murer et al. (Murer […]. Sodium/proton antiport in brush-border-membrane vesicles isolated from rat small intestine and kidney. 1976. J Am Soc Nephrol. 1998 January; 9 (1): 143-50). The ^33PO4 transport activity of the small-intestinal BBMVs was determined by the rapid filtration method. […] Then, ice-cold buffer C (110 mM NaCl, 1 mM KH2PO4, and 10 mM HEPES (pH 7.5)) was added to each reaction mixture, which was immediately suction-filtered through a Millipore filter. The filter was washed with buffer C, and each sample was then dissolved in a liquid scintillator. The amount of ^33PO4 uptake into BBMVs was measured using a liquid scintillation counter.

Test [2] has as its target T1, human NaPi-IIb (Homo sapiens, UniProt O95436).
T1 construct: expressed in transfected cells
T1 sequence (O95436 1-690): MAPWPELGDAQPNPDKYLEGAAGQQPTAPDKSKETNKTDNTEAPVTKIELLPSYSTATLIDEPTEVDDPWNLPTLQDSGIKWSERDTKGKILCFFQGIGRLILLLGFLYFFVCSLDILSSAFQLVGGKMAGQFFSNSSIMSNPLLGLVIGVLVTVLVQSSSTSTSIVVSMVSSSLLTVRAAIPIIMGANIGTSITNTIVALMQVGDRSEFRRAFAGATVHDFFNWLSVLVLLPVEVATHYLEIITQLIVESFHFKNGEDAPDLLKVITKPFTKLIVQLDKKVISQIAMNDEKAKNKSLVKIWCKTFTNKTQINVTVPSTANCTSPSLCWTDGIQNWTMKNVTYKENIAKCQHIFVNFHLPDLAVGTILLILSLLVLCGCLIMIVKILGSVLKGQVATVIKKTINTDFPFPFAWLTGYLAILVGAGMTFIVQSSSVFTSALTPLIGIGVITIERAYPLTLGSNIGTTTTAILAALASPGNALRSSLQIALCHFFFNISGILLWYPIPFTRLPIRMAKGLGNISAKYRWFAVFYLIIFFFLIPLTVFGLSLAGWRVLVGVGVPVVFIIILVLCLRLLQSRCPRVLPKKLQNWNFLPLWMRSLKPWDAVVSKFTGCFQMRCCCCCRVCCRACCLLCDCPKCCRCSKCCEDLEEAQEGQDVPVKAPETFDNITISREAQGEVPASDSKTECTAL
The test is described as follows: Inhibitory effect on 33PO4 uptake into human NaPi-IIb-expressing CHO cells. To be noted: read-out: IC50. It counts as cell-based. Put shortly:
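Stable human NaPi-IIb CHO line (G418-selected), plated and cultured overnight; ³³PO4 added in buffer A and uptake run at room temperature. Cells washed with ice-cold buffer A, then uptake counted by liquid scintillation.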

The term pIC50 denotes the IC50 on a negative log10 scale, so that one unit is a factor of ten.

pIC50: −log10 of the molar value.

Take `CSc1ccc(-c2cc(C(F)(F)F)ccc2NC(=O)C2=C(O)[C@@]3(C)CCCN3N(Cc3cccc(F)c3F)C2=O)cn1` [Example 97]: in test [1], the “Rate of uptake inhibition (%) (1 μM)” value is recorded as 89%. Also, the pIC50 in test [2] is 5.57. Turning to `C[C@]12CCCN1N(Cc1cccc(F)c1F)C(=O)C(C(=O)Nc1ccc(Br)c(C(F)(F)F)c1)=C2O` [Example 30], the “Rate of uptake inhibition (%) (1 μM)” value in test [1] was determined as 71%. The pIC50 in test [2] is 5.64. For `C[C@]12CCCN1N(Cc1cccc(F)c1Br)C(=O)C(C(=O)Nc1ccc(Br)c(Cl)c1)=C2O` [Example 41] the same measures were 84% and 5.18. Taken in the same sequence, the figures for `C[C@]12CCCN1N(Cc1cccc(F)c1F)C(=O)C(C(=O)Nc1ccc(C(F)(F)F)cc1-c1cnc(C#N)cn1)=C2O` [Example 57] were 71% and 4.99. `C[C@]12CCCN1N(Cc1cccc(F)c1Br)C(=O)C(C(=O)Nc1ccc(Br)c(C#N)c1)=C2O` [Example 40]: the “Rate of uptake inhibition (%) (1 μM)” value in test [1] is 87%. Moreover, the negative-log IC50 (pIC50) in test [2] is 5.19. As for `C[C@]12CCCN1N(Cc1cccc(F)c1)C(=O)C(C(=O)Nc1cc(F)c(Br)c(F)c1)=C2O` [Example 36], the “Rate of uptake inhibition (%) (1 μM)” value in test [1] is recorded as 80%. The pIC50 in test [2] is 5.21. On to `C[C@]12CCCN1N(Cc1cccc(F)c1F)C(=O)C(C(=O)Nc1ccc(C(F)(F)F)cc1-c1cnc(C#N)nc1)=C2O` [Example 95], for which the “Rate of uptake inhibition (%) (1 μM)” value in test [1] is given as 80%. Moreover, the pIC50 in test [2] was 5.27. As for `C[C@]12CCCN1N(Cc1cccc(F)c1F)C(=O)C(C(=O)Nc1ccc(C(F)(F)F)cc1-c1cccc(C#N)c1F)=C2O` [Example 46], in test [1], the “Rate of uptake inhibition (%) (1 μM)” value is reported as 71%. Besides, the pIC50 in test [2] was 4.85. As to `C[C@]12CCCN1N(Cc1cccc(F)c1)C(=O)C(C(=O)Nc1ccc(C(F)(F)F)cc1-c1cc(C(F)(F)F)ncn1)=C2O` [Example 34], the “Rate of uptake inhibition (%) (1 μM)” value in test [1] was determined as 99%. For the same compound, the pIC50 in test [2] is 5.15.

With `C[C@]12CCCN1N(Cc1ccc(OCCN3CCOCC3)c(F)c1F)C(=O)C(C(=O)Nc1ccc(C(F)(F)F)cc1-c1ncnc(C#N)c1Cl)=C2O` [Example 53], the “Rate of uptake inhibition (%) (1 μM)” value in test [1] was found to be 72%. Also, the negative logarithm of the IC50 (pIC50) in test [2] is 5.02.

Turning to `Cc1nc(NC(=O)C2=C(O)[C@@]3(C)CCCN3N(Cc3cccc(F)c3Br)C2=O)ccc1Br` [Example 39], the “Rate of uptake inhibition (%) (1 μM)” value in test [1] worked out at 90%. Besides, in test [2], the pIC50 was 5.07. For `CSc1ncc(-c2cc(C(F)(F)F)ccc2NC(=O)C2=C(O)[C@@]3(C)CCC(C)(C)N3N(Cc3cccc(F)c3F)C2=O)cn1` [Example 62] the same measures were 73% and 5.19.

As for `CSc1ncc(-c2nc(C(F)(F)F)ccc2NC(=O)C2=C(O)[C@@]3(C)CCCN3N(Cc3cccc(F)c3F)C2=O)cn1` [Example 54], the “Rate of uptake inhibition (%) (1 μM)” value in test [1] is given as 72%. In addition, in test [2], the negative-log IC50 (pIC50) was 5.64.

Regarding `COc1cccc(-c2cc(C(F)(F)F)ccc2NC(=O)C2=C(O)[C@@]3(C)CCCN3N(Cc3cccc(F)c3F)C2=O)c1OC` [Example 44], the “Rate of uptake inhibition (%) (1 μM)” value in test [1] is 94%. On to `C[C@]12CCCN1N(Cc1cccc(F)c1Br)C(=O)C(C(=O)Nc1cccc(Cl)c1F)=C2O` [Example 43], for which the “Rate of uptake inhibition (%) (1 μM)” value in test [1] was found to be 79%. In test [2], the pIC50 is 5.08.

Regarding `CC1(C)CC[C@]2(C)C(O)=C(C(=O)Nc3ccc(C(F)(F)F)cc3-c3ccc(C(F)(F)F)nc3)C(=O)N(Cc3cccc(F)c3F)N12` [Example 61], in test [1], the “Rate of uptake inhibition (%) (1 μM)” value turned out to be 71%. Moreover, in test [2], the pIC50 is 5.25. Take `COc1nc(C#N)ncc1-c1cc(C(F)(F)F)ccc1NC(=O)C1=C(O)[C@@]2(C)CCCN2N(Cc2ccc(OCCN3CCOCC3)c(F)c2F)C1=O` [Example 55]: the “Rate of uptake inhibition (%) (1 μM)” value in test [1] is recorded as 85%. Also, the pIC50 in test [2] was 4.82. Regarding `C[C@]12CCCN1N(Cc1cccc(F)c1F)C(=O)C(C(=O)Nc1ccc(C(F)(F)F)cc1-c1cccc(F)c1C#N)=C2O` [Example 48], the “Rate of uptake inhibition (%) (1 μM)” value in test [1] is listed as 87%. Also, the pIC50 in test [2] is 4.79. For `C[C@]12CCCN1N(Cc1ccc(OCCN3CCOCC3)c(F)c1F)C(=O)C(C(=O)Nc1ccc(C(F)(F)F)nc1-c1ccccc1OC(F)(F)F)=C2O` [Example 59] the same measures were 84% and 5.13. Regarding `C[C@]12CCCN1N(Cc1cccc(F)c1F)C(=O)C(C(=O)Nc1ccc(C(F)(F)F)cc1-c1ccc(C#N)nc1)=C2O` [Example 94], the “Rate of uptake inhibition (%) (1 μM)” value in test [1] was found to be 73%. Besides, in test [2], the pIC50 was 5.06. Regarding `COc1nc(C#N)ncc1-c1cc(C(F)(F)F)ccc1NC(=O)C1=C(O)[C@@]2(C)CCCN2N(Cc2cccc(F)c2F)C1=O` [Example 56], the “Rate of uptake inhibition (%) (1 μM)” value in test [1] is 88%. In addition, the pIC50 in test [2] is 5.14. As to `COc1c(Cl)ncnc1-c1cc(C(F)(F)F)ccc1NC(=O)C1=C(O)[C@@]2(C)CCCN2N(Cc2cccc(F)c2F)C1=O` [Example 49], the “Rate of uptake inhibition (%) (1 μM)” value in test [1] is recorded as 85%. In addition, the pIC50 in test [2] is 4.89. For `COC(=O)c1cc(-c2cc(C(F)(F)F)ccc2NC(=O)C2=C(O)[C@@]3(C)CCCN3N(Cc3cccc(F)c3F)C2=O)nc(Cl)n1` [Example 98] the same measures were 53% and 4.97. Turning to `C[C@]12CCCN1N(Cc1cccc(F)c1F)C(=O)C(C(=O)Nc1ccc(C(F)(F)F)cc1-c1cc(C#N)ccn1)=C2O` [Example 45], the “Rate of uptake inhibition (%) (1 μM)” value in test [1] amounted to 73%. For the same compound, the pIC50 in test [2] was 4.89. As for `C[C@]12CCCN1N(Cc1cccc(F)c1F)C(=O)C(C(=O)Nc1ccc(Br)c(Cl)c1)=C2O` [Example 31], in test [1], the “Rate of uptake inhibition (%) (1 μM)” value was determined as 76%. Same read-out and setting: with `COc1ccc(CN2C(=O)C(C(=O)Nc3cc(F)c(Br)c(F)c3)=C(O)[C@@]3(C)CCCN23)c(OC)c1` [Example 58] the figure was 46%. With `C[C@]12CCCN1N(Cc1cccc(F)c1Br)C(=O)C(C(=O)Nc1ccc(Br)c(F)c1)=C2O` [Example 37], the “Rate of uptake inhibition (%) (1 μM)” value in test [1] was 89%. Besides, the pIC50 in test [2] was 5.43. For `Cc1c(-c2cc(C(F)(F)F)ccc2NC(=O)C2=C(O)[C@@]3(C)CCCN3N(Cc3cccc(F)c3F)C2=O)ccnc1Cl` [Example 47] the same measures were 91% and 5.15. For `C[C@]12CCCN1N(Cc1cccc(F)c1)C(=O)C(C(=O)Nc1ccc(Br)c(F)c1)=C2O` [Example 35] the same measures were 79% and 4.90. For `C[C@]12CCCN1N(Cc1cccc(F)c1Br)C(=O)C(C(=O)Nc1ccc(Cl)cc1F)=C2O` [Example 38] the same measures were 90% and 5.17. With `C[C@]12CCCN1N(Cc1cccc(F)c1F)C(=O)C(C(=O)Nc1cc(Br)c(Br)cc1F)=C2O` [Example 33], the “Rate of uptake inhibition (%) (1 μM)” value in test [1] came out at 77%. Also, the pIC50 in test [2] was 5.22. Take `CSc1ncc(-c2cc(C(F)(F)F)ccc2NC(=O)C2=C(O)[C@@]3(C)CCCN3N(Cc3cccc(F)c3F)C2=O)cn1` [Example 96]: the “Rate of uptake inhibition (%) (1 μM)” value in test [1] is 83%. In addition, the pIC50 in test [2] is 5.55. In the case of `C[C@]12CCCN1N(Cc1ccc(OCCN3CCOCC3)c(F)c1F)C(=O)C(C(=O)Nc1ccc(C(F)(F)F)nc1-c1ccc(OC(F)(F)F)cc1)=C2O` [Example 60], the “Rate of uptake inhibition (%) (1 μM)” value in test [1] is 78%. The pIC50 in test [2] is 5.06. For `C[C@]12CCCN1N(Cc1cccc(F)c1Br)C(=O)C(C(=O)Nc1ccc(Br)c(C(F)(F)F)c1)=C2O` [Example 42] the same measures were 67% and 5.30. As for `Cc1cc(S(=O)(=O)N(C)C)ccc1-c1cc(C(F)(F)F)ccc1NC(=O)C1=C(O)[C@@]2(C)CCCN2N(Cc2cccc(F)c2F)C1=O` [Example 50], in test [1], the “Rate of uptake inhibition (%) (1 μM)” value was 79%. In test [2], the pIC50 is 5.08.
